How the values were obtained:
MM.1S = test: CCK-8 proliferation, MM.1S; type: cell-based; conditions: Homo sapiens, MM1.S; CCK-8; 72 hours; read-out: Inhibitory activity (IC50) on tumor cell proliferation, MM1S
Method in brief: (§1)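 Cells seeded, then after 24 h treated with 10 concentrations (top 10 µM, 5-fold serial dilution) for a line-specific time at 37°C, 5% CO2. Viability read by CCK-8; IC50 fitted from growth-inhibition curves.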

H1975 = test: CCK-8 proliferation, NCI-H1975 (H1975); type: cell-based, Human; conditions: Homo sapiens, NCI-H1975; CCK-8; 96 hours; read-out: Inhibitory activity (IC50) on tumor cell proliferation, H1975
Method in brief: as §1

SR = test: CCK-8 proliferation, SR; type: cell-based, Human; conditions: Homo sapiens, SR; CCK-8; 72 hours; read-out: Inhibitory activity (IC50) on tumor cell proliferation, SR
Method in brief: as §1

MM.1R = test: CCK-8 proliferation, MM.1R; type: cell-based; conditions: CCK-8, 72 hours, read-out: Inhibitory activity (IC50) on tumor cell proliferation, MM.1R
Protocol: (§2) The tumor cells used herein were cultured in a cell culture medium listed in table A1 at 37°C in an incubator with 5% CO2. Prior to experimentation, all cell lines used were correctly identified by STR profiling, and tested negative for mycoplasma contamination using a mycoplasma detection kit through routine screenings. Table A1. Tumor cells and cell culture medium used in the present disclosure
(§3) IC50 values of the compounds of the present disclosure (including the compounds in Table 1, and compounds of examples) were measured using the Meilun Cell Counting Kit-8 kit from Dalian Meilun Biotech Co., Ltd. Assay details are as follows: tumor cells were seeded in a 96-well plate at a density listed in Table A2. After 24h, 100 µL of the inoculated cells were treated with 0.5µL of the compounds of the present disclosure (including the compounds in Tables 1 and 2, and compounds of examples) at 10 different successively decreasing concentrations (starting at the highest concentration of 10µM; 5-fold serial dilutions). After the cells were treated with the compounds of the present disclosure for a period of time, the cell viability detection reagent was added to the culture medium for cell viability assessment according to the instructions provided with the CCK-8 kit. […] The growth inhibition of the compounds of the present disclosure on cells was plotted by Prism Graphpad software, and the IC50 values of the compounds of the present disclosure were calculated therefrom. […] Seeding protocol and treatment time for tumor cells

MV-4-11 = test: CCK-8 proliferation, MV-4-11; type: cell-based, Human; conditions: Homo sapiens, MV4-11; CCK-8; 72 or 96 hours; read-out: Inhibitory activity (IC50) on tumor cell proliferation, MV-4-11
Method in brief: as §1

Kasumi-1 = test: CCK-8 proliferation, Kasumi-1; type: cell-based, Human; conditions: Homo sapiens, Kasumi 1, 72 hours, read-out: Inhibitory activity (IC50) on tumor cell proliferation, Kasumi-1
Method in brief: as §1

CCRF-CEM = test: CCK-8 proliferation, CCRF-CEM; type: cell-based, Human; conditions: Homo sapiens, CCRF-CEM; CCK-8; 96 hours; read-out: Inhibitory activity (IC50) on tumor cell proliferation, CCRF-CEM
Method in brief: as §1

MCF7 = test: CCK-8 proliferation, MCF7 (MCF-7); type: cell-based; conditions: Homo sapiens, MCF7; CCK-8; read-out: Inhibitory activity (IC50) on tumor cell proliferation, MCF7
Method in brief: as §1

22RV1 = test: CCK-8 proliferation, 22RV1; type: cell-based; conditions: Homo sapiens, 96 hours, read-out: Inhibitory activity (IC50) on tumor cell proliferation, 22RV1
Protocol: as §2, §3

CDK4 = target: T1, CDK4 (Homo sapiens, UniProt P11802); test: Western blot degradation of CDK4 (MDA-MB-231 Cell); type: cell-based; conditions: Table D3
T1 construct: evaluate the effects of the compounds of the present disclosure on the expression of target proteins in cells; endogenous in cells; host or cells: MDA-MB-231
Method in brief: (§4)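 Quantification by ImageJ densitometry of Western blot bands: DC50 is the fitted concentration halving band intensity relative to DMSO. Percent remaining uses internal-control normalization, and degradation rate is its complement.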

CDK6 = target: T2, CDK6 (Homo sapiens, UniProt Q00534); test: Western blot degradation of CDK6 (MDA-MB-231 Cell); type: cell-based; conditions: Table D3
T2 construct: evaluate the effects of the compounds of the present disclosure on the expression of target proteins in cells; endogenous in cells; host or cells: MDA-MB-231
Method in brief: as §4

T2 sequence (Q00534 whole entry): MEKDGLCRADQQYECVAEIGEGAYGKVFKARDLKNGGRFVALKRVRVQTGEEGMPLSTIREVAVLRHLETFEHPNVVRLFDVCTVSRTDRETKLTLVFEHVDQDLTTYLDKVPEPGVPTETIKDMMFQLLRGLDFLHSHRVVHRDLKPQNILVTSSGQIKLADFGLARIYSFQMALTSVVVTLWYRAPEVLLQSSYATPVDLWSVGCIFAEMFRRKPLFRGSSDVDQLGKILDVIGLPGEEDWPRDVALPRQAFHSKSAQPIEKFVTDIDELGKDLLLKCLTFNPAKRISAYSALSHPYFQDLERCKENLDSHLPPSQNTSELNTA
T1 sequence (P11802 whole entry): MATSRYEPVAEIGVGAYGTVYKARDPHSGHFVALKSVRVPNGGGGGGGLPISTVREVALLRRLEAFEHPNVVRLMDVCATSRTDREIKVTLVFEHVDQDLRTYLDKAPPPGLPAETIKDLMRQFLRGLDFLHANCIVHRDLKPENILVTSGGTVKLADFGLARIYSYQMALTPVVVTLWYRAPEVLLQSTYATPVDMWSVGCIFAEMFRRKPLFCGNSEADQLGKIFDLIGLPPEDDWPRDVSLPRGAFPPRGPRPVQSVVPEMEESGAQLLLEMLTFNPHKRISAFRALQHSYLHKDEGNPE

SMILES: CC(=O)c1c(C)c2cnc(Nc3ccc(N4CCNCC4)cn3)nc2n(C2CCCC2)c1=O [Palbociclib, reference compound]
- IC50 (MM.1S): > 10000 nM
- IC50 (H1975): 5000 to 10000 nM
- IC50 (SR): 1000 to 5000 nM
- IC50 (MM.1R): > 10000 nM
- IC50 (MV-4-11): 100 to 500 nM
- IC50 (Kasumi-1): 1000 to 5000 nM
- IC50 (CCRF-CEM): 1000 to 5000 nM
- IC50 (MCF7): 1000 to 5000 nM
- IC50 (22RV1): 100 to 500 nM

SMILES: Cc1nc2c(F)cc(-c3nc(Nc4ccc(N5CCC(N(C)Cc6cccc(N7CCC(=O)NC7=O)c6)CC5)cn4)ncc3F)cc2n1C(C)C [GT-06839, 1-(3-(((1-(6-((5-fluoro-4-(4-fluoro-1-isopropyl-2-methyl-1H-benzo[d]imidazol-6-yl)pyrimidin-2-yl)amino)pyridin-3-yl)piperidin-4-yl)(methyl)amino)methyl)phenyl)dihydropyrimidine-2,4(1H,3H)-dione]
- IC50 (MM.1S): 100 to 500 nM
- IC50 (H1975): 100 to 500 nM
- IC50 (SR): 50 to 100 nM
- IC50 (MV-4-11): 10 to 50 nM
- IC50 (Kasumi-1): 10 to 50 nM
- Degradation of substrate protein CDK4 (substrate protein remaining %) (CDK4): A (A is defined as 0% ≤ substrate protein remaining % ≤ 80%)
- IC50 (CCRF-CEM): 100 to 500 nM
- Degradation of substrate protein CDK6 (substrate protein remaining %) (CDK6): A (A is defined as 0% ≤ substrate protein remaining % ≤ 80%)
- IC50 (MCF7): 50 to 100 nM
- IC50 (22RV1): 10 to 50 nM

SMILES: Cc1nc2c(F)cc(-c3nc(Nc4ccc(N5CCC(N6CCN(Cc7cccc(N8CCC(=O)NC8=O)c7)CC6)CC5)cn4)ncc3F)cc2n1C(C)C [GT-06740, 1-(3-((4-(1-(6-((5-fluoro-4-(4-fluoro-1-isopropyl-2-methyl-1H-benzo[d]imidazol-6-yl)pyrimidin-2-yl)amino)pyridin-3-yl)piperidin-4-yl)piperazin-1-yl)methyl)phenyl)dihydropyrimidine-2,4(1H,3H)-dione]
- IC50 (MM.1S): 100 to 500 nM
- IC50 (H1975): 100 to 500 nM
- IC50 (SR): 10 to 50 nM
- IC50 (MV-4-11): 10 to 50 nM
- IC50 (Kasumi-1): 50 to 100 nM
- Degradation of substrate protein CDK4 (substrate protein remaining %) (CDK4): A (A is defined as 0% ≤ substrate protein remaining % ≤ 80%)
- IC50 (CCRF-CEM): 100 to 500 nM
- Degradation of substrate protein CDK6 (substrate protein remaining %) (CDK6): B (B is defined as substrate protein remaining % > 80%)
- IC50 (MCF7): 50 to 100 nM
- IC50 (22RV1): 10 to 50 nM

SMILES: Cc1nc2c(F)cc(-c3nc(Nc4ccc(N5CCC(N6CCN(Cc7ccc(N8CCC(=O)NC8=O)cn7)CC6)CC5)cn4)ncc3F)cc2n1C(C)C [GT-06741, 1-(6-((4-(1-(6-((5-fluoro-4-(4-fluoro-1-isopropyl-2-methyl-1H-benzo[d]imidazol-6-yl)pyrimidin-2-yl)amino)pyridin-3-yl)piperidin-4-yl)piperazin-1-yl)methyl)pyridin-3-yl)dihydropyrimidine-2,4(1H,3H)-dione]
- IC50 (MM.1S): 100 to 500 nM
- IC50 (H1975): 100 to 500 nM
- IC50 (SR): 10 to 50 nM
- IC50 (MV-4-11): 10 to 50 nM
- IC50 (Kasumi-1): 100 to 500 nM
- Degradation of substrate protein CDK4 (substrate protein remaining %) (CDK4): A (A is defined as 0% ≤ substrate protein remaining % ≤ 80%)
- IC50 (CCRF-CEM): 50 to 100 nM
- Degradation of substrate protein CDK6 (substrate protein remaining %) (CDK6): B (B is defined as substrate protein remaining % > 80%)
- IC50 (MCF7): 50 to 100 nM
- IC50 (22RV1): 10 to 50 nM

SMILES: Cc1nc2c(F)cc(-c3nc(Nc4ccc(N5CCC(N(C)Cc6ccc(N7CCC(=O)NC7=O)cc6)CC5)cn4)ncc3F)cc2n1C(C)C [GT-06838, 1-(4-(((1-(6-((5-fluoro-4-(4-fluoro-1-isopropyl-2-methyl-1H-benzo[d]imidazol-6-yl)pyrimidin-2-yl)amino)pyridin-3-yl)piperidin-4-yl)(methyl)amino)methyl)phenyl)dihydropyrimidine-2,4(1H,3H)-dione]
- IC50 (MM.1S): 100 to 500 nM
- IC50 (H1975): 100 to 500 nM
- IC50 (SR): 10 to 50 nM
- IC50 (MV-4-11): 10 to 50 nM
- IC50 (Kasumi-1): 50 to 100 nM
- Degradation of substrate protein CDK4 (substrate protein remaining %) (CDK4): A (A is defined as 0% ≤ substrate protein remaining % ≤ 80%)
- IC50 (CCRF-CEM): 100 to 500 nM
- Degradation of substrate protein CDK6 (substrate protein remaining %) (CDK6): B (B is defined as substrate protein remaining % > 80%)
- IC50 (MCF7): 50 to 100 nM
- IC50 (22RV1): 10 to 50 nM

SMILES: Cc1nc2c(F)cc(-c3nc(Nc4ccc(N5CCC(N(C)Cc6ccc(N7CCC(=O)NC7=O)cn6)CC5)cn4)ncc3F)cc2n1C(C)C [GT-06840, 1-(6-(((1-(6-((5-fluoro-4-(4-fluoro-1-isopropyl-2-methyl-1H-benzo[d]imidazol-6-yl)pyrimidin-2-yl)amino)pyridin-3-yl)piperidin-4-yl)(methyl)amino)methyl)pyridin-3-yl)dihydropyrimidine-2,4(1H,3H)-dione]
- IC50 (MM.1S): 100 to 500 nM
- IC50 (H1975): 100 to 500 nM
- IC50 (SR): 50 to 100 nM
- IC50 (MV-4-11): 50 to 100 nM
- IC50 (Kasumi-1): 100 to 500 nM
- Degradation of substrate protein CDK4 (substrate protein remaining %) (CDK4): A (A is defined as 0% ≤ substrate protein remaining % ≤ 80%)
- IC50 (CCRF-CEM): 100 to 500 nM
- Degradation of substrate protein CDK6 (substrate protein remaining %) (CDK6): B (B is defined as substrate protein remaining % > 80%)
- IC50 (MCF7): 1 to 10 nM
- IC50 (22RV1): 50 to 100 nM

SMILES: Cc1nc2c(F)cc(-c3nc(Nc4ccc(CN5CCN(Cc6cccc(N7CCC(=O)NC7=O)c6)CC5)cn4)ncc3F)cc2n1C(C)C [GT-06666, 1-(3-((4-((6-((5-fluoro-4-(4-fluoro-1-isopropyl-2-methyl-1H-benzo[d]imidazol-6-yl)pyrimidin-2-yl)amino)pyridin-3-yl)methyl)piperazin-1-yl)methyl)phenyl)dihydropyrimidine-2,4(1H,3H)-dione]
- IC50 (MM.1S): 500 to 1000 nM
- IC50 (H1975): 500 to 1000 nM
- IC50 (SR): 100 to 500 nM
- IC50 (MV-4-11): 10 to 50 nM
- IC50 (Kasumi-1): 100 to 500 nM
- Degradation of substrate protein CDK4 (substrate protein remaining %) (CDK4): A (A is defined as 0% ≤ substrate protein remaining % ≤ 80%)
- IC50 (CCRF-CEM): 100 to 500 nM
- Degradation of substrate protein CDK6 (substrate protein remaining %) (CDK6): A (A is defined as 0% ≤ substrate protein remaining % ≤ 80%)
- IC50 (MCF7): 100 to 500 nM
- IC50 (22RV1): 50 to 100 nM

SMILES: CN(C)C(=O)c1cc2cnc(Nc3ccc(N4CCNCC4)cn3)nc2n1C1CCCC1 [Ribociclib, reference compound]
- IC50 (MM.1S): 5000 to 10000 nM
- IC50 (H1975): > 10000 nM
- IC50 (SR): 5000 to 10000 nM
- IC50 (MM.1R): > 10000 nM
- IC50 (MV-4-11): 5000 to 10000 nM
- IC50 (Kasumi-1): 1000 to 5000 nM
- IC50 (CCRF-CEM): > 10000 nM
- IC50 (MCF7): 5000 to 10000 nM
- IC50 (22RV1): 1000 to 5000 nM

Source: EP4678638A1, “NEW E3 UBIQUITIN LIGASE LIGAND, PROTEIN DEGRADATION AGENT AND USE THEREOF” (priority 2023, dated 2024)
